The values that follow come from article PMC10142799, “Synthesis, In Silico and In Vitro Characterization of Novel N,N-Substituted Pyrazolopyrimidine Acetamide Derivatives for the 18KDa Translocator Protein (TSPO)” (Pharmaceuticals, 2023).

SMILES strings stand for the structures. Where “and” joins values, the source holds several entries; their conditions need not be identical. Identical values can stand only once. Like-named read-outs stand apart in the source and are kept apart here.

For series [1], the target named is T1, TSPO (Homo sapiens, UniProt P30536).
T1 construct: from tissue; host or cells: isolated human leukocytes (membranes)
Nature of the series: In vitro TSPO binding assay, competition with [3H]PK11195 in membrane of human leukocytes.

Series [2] deals with L-929 (mouse fibroblast cells). Nature of the series: In vitro cytotoxicity (MTT assay) on L-929 cells. In kind it is cell-based. To be noted: Mus musculus, read-out: IC50 values of cell viability. The procedure:
(§1) Five concentrations of each compound dissolved in 2% of DMSO in culture media (50 μL) were introduced into cell media (96-well plate). The cell cultures treated with ligands were incubated 24 h, and then the media were removed. The cell crudes were measured at 570 nm and 650 nm using a MTT reagent. All procedures and reagents followed ISO 10993-5 and ISO 10993-12.
(§2) 929, mouse fibroblast cells) were cultured in a 96 well plate and treated with 50 […]
(§3) concentration. After incubation at 37 ° C for 24 hours under CO […]
(§4) fluid, the treated culture medium was removed and the absorbance of each samples were measured at 570 and 650 nm using MTT reagent.
(§5) Blank was administered with only 50uL of cell incubation media. As a control, a 50 […]
(§6) n media was administered.
(§7) MTT assay followed ISO 10993 […]
(§8) values of cell viability for GMA 10, GMA 11, GMA 15, DPA
A general note: Tetrazolium assays rely on reduction of a dye to a coloured formazan, in cell work by metabolically active cells.

The nature of series [3]: In vitro cytotoxicity (MTT assay) on L-929 cells. In kind it is cell-based, mouse. The note with it: mouse, L-929 mouse fibroblast cells, L-929, 24 h, MTT, read-out: Cell viability. The procedure: as §1, §2, §3, §4, §5, §6, §7, §8
Where [4] appears, read: L929, L-929, 24 h, MTT, same values given in μM.

T1 sequence (P30536 whole entry): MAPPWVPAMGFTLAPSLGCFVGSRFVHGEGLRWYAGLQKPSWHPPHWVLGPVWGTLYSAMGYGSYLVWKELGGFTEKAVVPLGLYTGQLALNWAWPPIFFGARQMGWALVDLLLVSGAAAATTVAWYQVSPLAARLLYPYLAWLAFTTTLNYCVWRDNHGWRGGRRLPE

`CCc1cc(CC)n2nc(-c3ccc(F)cc3)c(CC(=O)N(CC)CCOC)c2n1` [GMA 11, 2-(5,7-diethyl-2-(4-fluorophenyl)pyrazolo [1,5-a]pyrimidin-3-yl)-N-ethyl-N-(2-methoxyethyl) acetamide]: affinity in series [1] was put at a Ki of 0.19 nM. Besides, in series [2] (L929, L-929, 24 h, MTT), the IC50 (commonly the concentration that gives 50% inhibition) was 36.2 µg/mL. The IC50 in series [2] (setting [4]) amounted to 87.8 µM. In series [3], the viability – broadly, the share of living cells, or the viability signal relative to a control – at 24 h, 3.125 μg/mL amounted to 61.7 ± 0.71%; the viability at 24 h, 6.25 μg/mL came out at 58.3 ± 3.12%; the viability at 24 h, 12.5 μg/mL worked out at 39.5 ± 0.63%; the viability at 24 h, 25 μg/mL amounted to 33.5 ± 2.28%. Besides, the viability at 24 h, 50 μg/mL in series [3] was 28.9 ± 1.12%.

On to `CCN(CC)C(=O)Cc1c(-c2ccc(OCCF)cc2)nn2c(C)cc(C)nc12` [DPA-714, reference compound], for which the Ki (as a rule, a measure of affinity in units of concentration, obtained from inhibition or displacement) in series [1] turned out to be 3.66 nM. The IC50 in series [2] (L929, L-929, 24 h, MTT) was determined as 18.6 µg/mL. Besides, the IC50 in series [2] (setting [4]) worked out at 46.7 µM. Further, in series [3], the viability at 24 h, 3.125 μg/mL was determined as 51 ± 4.08%; the viability at 24 h, 6.25 μg/mL was found to be 47.3 ± 3.44%; the viability at 24 h, 12.5 μg/mL stood at 45.2 ± 1.86%; the viability at 24 h, 25 μg/mL turned out to be 32.1 ± 2.54%. Moreover, in series [3], the viability at 24 h, 50 μg/mL is 11.2 ± 1.94%.

With `CCCN(CCC)C(=O)Cc1c(-c2ccc(F)cc2)nn2c(CC)cc(CC)nc12` [GMA 10, 2-(5,7-diethyl-2-(4-fluorophenyl)pyrazolo [1,5-a]pyrimidin-3-yl)-N,N-dipropylacetamide], in series [1], the Ki turned out to be 0.18 nM. In series [2] (L929, L-929, 24 h, MTT), the 50% inhibitory concentration (IC50) was determined as 15.2 µg/mL. Also, in series [2] (setting [4]), the IC50 worked out at 37.1 µM. In addition, in series [3], the viability at 24 h, 3.125 μg/mL was 64.5 ± 1.19%; the viability at 24 h, 6.25 μg/mL is 53.4 ± 2.02%; the viability at 24 h, 12.5 μg/mL came out at 39.8 ± 0.74%; the viability at 24 h, 25 μg/mL turned out to be 24.6 ± 3.13%. Besides, in series [3], the viability at 24 h, 50 μg/mL was found to be 19.8 ± 1.19%.

With `CCc1cc(CC)n2nc(-c3ccc(F)cc3)c(CC(=O)N(CC)CC)c2n1` [GMA 8, 2-(5,7-diethyl-2-(4-fluorophenyl)pyrazolo [1,5-a]pyrimidin-3-yl)-N,N-diethylacetamide], in series [1], the affinity, expressed as Ki, was 8.79 nM.

For `CCc1cc(CC)n2nc(-c3ccc(F)cc3)c(CC(=O)N(CC)Cc3ccccc3OC)c2n1` [GMA 16, 2-(5,7-diethyl-2-(4-fluorophenyl)pyrazolo [1,5-a]pyrimidin-3-yl)-N-ethyl-N-(2-methoxybenzyl)acetamide], the affinity in series [1], expressed as Ki, was 0.49 nM.

Compound `CCc1cc(CC)n2nc(-c3ccc(F)cc3)c(CC(=O)N(C)CC)c2n1` [GMA 7, 2-(5,7-diethyl-2-(4-fluorophenyl)pyrazolo [1,5-a]pyrimidin-3-yl)-N-ethyl-N-methylacetamide] registered a Ki in series [1] of 17.1 nM.

Take `CCC(C)N(C)C(=O)c1cc2ccccc2c(-c2ccccc2Cl)n1` (centres unmarked) [PK11195, reference compound]: in series [2] (L929, 24 h), the IC50 is 22.1 µg/mL and 62.7 µM. In series [3], the viability at 24 h, 3.125 μg/mL worked out at 57.8 ± 5.22%; the viability at 24 h, 6.25 μg/mL worked out at 49.08 ± 0.43%; the viability at 24 h, 12.5 μg/mL came to 48.18 ± 0.43%; the viability at 24 h, 25 μg/mL was 38.3 ± 4.8%. The viability at 24 h, 50 μg/mL in series [3] stood at 32.8 ± 3.14%.

As for `CCc1cc(CC)n2nc(-c3ccc(F)cc3)c(CC(=O)N(CC)c3ccccc3)c2n1` [GMA 15, 2-(5,7-diethyl-2-(4-fluorophenyl)pyrazolo [1,5-a]pyrimidin-3-yl)-N-ethyl-N-phenylacetamide], the Ki in series [1] amounted to 0.06 nM. Further, in series [1] (ratio of Ki values), the “fold enhancement in affinity compared to DPA-714” value is 61 fold and the “fold higher affinity compared to PK11195” value was found to be 22 fold. The IC50 in series [2] (L929, L-929, 24 h, MTT) turned out to be 9.73 µg/mL. For the same compound, in series [2] (setting [4]), the half-maximal inhibitory concentration (IC50) worked out at 22.6 µM. For the same compound, in series [3], the viability at 24 h, 3.125 μg/mL amounted to 57.9 ± 4.04%; the viability at 24 h, 6.25 μg/mL is 50.6 ± 2.39%; the viability at 24 h, 12.5 μg/mL came out at 26 ± 8.01%; the viability at 24 h, 25 μg/mL stood at 9.6 ± 1.6%. The viability at 24 h, 50 μg/mL in series [3] turned out to be 6.6 ± 2.15%.

Regarding `C#CCN(CC#C)C(=O)Cc1c(-c2ccc(F)cc2)nn2c(CC)cc(CC)nc12` [GMA 13, 2-(5,7-diethyl-2-(4-fluorophenyl)pyrazolo [1,5-a]pyrimidin-3-yl)-N,N-di(prop-2-yn-1-yl) acetamide], the Ki in series [1] was 0.9 nM.

`CCc1cc(CC)n2nc(-c3ccc(F)cc3)c(CC(=O)N(CCOC)CCOC)c2n1` [GMA 12, 2-(5,7-Diethyl-2-(4-fluorophenyl)pyrazolo [1,5-a]pyrimidin-3-yl)-N,N-bis(2-methoxyethyl) acetamide]: affinity in series [1] was put at a Ki of 25.4 nM.

Take `CCc1cc(CC)n2nc(-c3ccc(F)cc3)c(CC(=O)N(CC)C(C)C)c2n1` [GMA 9, 2-(5,7-Diethyl-2-(4-fluorophenyl)pyrazolo [1,5-a]pyrimidin-3-yl)-N-ethyl-N-isopropyl acetamide]: the Ki in series [1] stood at 13.3 nM. This Ki lies about 1.9-fold lower than the previous one.

The compound `CCc1cc(CC)n2nc(-c3ccc(F)cc3)c(CC(=O)N(CC)Cc3cc(OC)ccc3OC)c2n1` [GMA 17, 2-(5,7-diethyl-2-(4-fluorophenyl)pyrazolo [1,5-a]pyrimidin-3-yl)-N-(2,5-dimethoxybenzyl)-N-ethylacetamide] came in with a Ki in series [1] of 0.54 nM.
